Reference: patent publication US20080281105A1, “Novel Quinolinium Salts and Derivatives” (IMMUSOL INCORPORATED, priority 2005, published 2008)

How the values were obtained:
[1] = test system: Panc-1, HCT-116, Pc3M/N, HEPG2, ASPC1, or H460 cells; experiment: Reduction of viable cell growth in glucose deprived media (liquid culture, alamarBlue); assay type: cell-based; conditions: for EC50: concentration giving at least 50% reduction of viable cell growth
H460 NSCL cells = experiment: Non-small cell lung cancer (NSCL) xenograft early stage model in nude mice; assay type: in vivo
Experimental: The anti-tumor activity of the compound of Example 56 was tested in a nude mice xenograft early stage model. Female athymic nude (nu/nu) mice were inoculated with H460 NSCL cells and divided into two groups. The first group was dosed with vehicle (control), and the second group was dosed i. p. with the compound of Example 56 on a daily basis (6 times/week).

transformed cell growth = conditions: reported in the literature; cited from earlier work
A549 cancer cells [2] = experiment: A549 NSCL xenograft model, combination with 2DG; assay type: in vivo, mice; conditions: 2DG 300 mg/kg, Example 36 2 mg/kg, i.p. daily (6 times per week); Example 36 alone p<0.05 at day 24 and 27; combination p<0.05 at day 13-27; FIG. 7
Text: Because the compounds of the invention may be more toxic to cancer cells deprived of glucose or treated with 2DG in vitro, the combination of 2DG with such compounds should have increased anti-tumor efficacy in vivo as compared with either agent alone. Accordingly, the effect of a combination therapy of the compound of Example 36 and 2DG using A549 NSCL xenograft model was examined.
Female athymic nude mice (nu/nu) (4-6 weeks old) were inoculated (s.c.) with 5×10^6 A549 cancer cells in PBS on the flanking site. After the tumors reached an average size ˜100 mm^3, the animals were divided into four treatment groups—0.9% NaCl (control), 2DG at 300 mg/kg, the compound of Example 36 at 2 mg/kg, and a combination of 2DG (300 mg/kg) and the compound of Example 36 (2 mg/kg). All the treatments were delivered by intraperitoneal injection daily (6 times per week). Tumor size and body weight were measured twice per week. Tumor volume was calculated using the formula TV=length×width×width/2.

Lewis lung cancer cells [3] = experiment: Mouse Lewis lung cancer (LLC) xenograft model; assay type: in vivo, mice; conditions: 2 mg/kg intraperitoneal, 6 times per week; day 15; p<0.05; FIG. 6
Experimental: Using the mouse Lewis lung cancer (LLC) xenograft model, female C57BL mice (4-6 weeks old) were inoculated (s.c.) with 5×10^5 Lewis lung cancer cells in PBS on the flanking site. Animals were randomly divided into treatment and control groups (n=8) based on tumor size when average tumor size reached 100 mm^3. Animals in the treatment group received the compound of Example 36 (also designated IMS2143) or the compound of Example 47 daily at 2 mg/kg via intraperitoneal dosing, 6 times per week respectively. The control group was injected with 0.9% NaCl. Tumor size and body weight were measured twice per week. Tumor volume was calculated using the formula TV=length×width×width/2.

Lewis lung cancer cells [4] = experiment: Mouse LLC model, combination with 2DG; assay type: in vivo, mice; conditions: Example 36 2 mg/kg, 2DG 300 mg/kg, i.p. 6 times per week; p<0.05; FIG. 8
Experimental: More specifically, female C57BL mice (4-6 weeks old) were inoculated (s.c.) with 5×10^5 Lewis lung cancer cells in PBS on the flanking site. Animals were randomly divided into treatment and control groups (n=8) based on tumor size when average tumor size reached 100 mm^3. Animals in the treatment groups received the compound of Example 36 daily at 2 mg/kg and 2DG at 300 mg/kg via intraperitoneal dosing, 6 times per week respectively. Tumor size and body weight were measured twice per week. Tumor volume was calculated using the formula TV=length×width×width/2.

[5] = test system: eukaryotic translation system; conditions: reported by Malina; cited from earlier work
A549 cancer cells [6] = experiment: A549 xenograft model, combination with taxol; assay type: in vivo, mice; conditions: paclitaxel 20 mg/kg once per 4 days i.p.; IMS2155 2 mg/kg daily i.p.; p<0.05 for monotherapies; FIG. 5
Experimental: Combination treatment with taxol and the compound of Example 47 (also designated IMS2155) in the A549 (NCLC) model was tested. Taxol is one of standards of care for lung cancer.
Female athymic nude mice (nu/nu) (4-6 weeks old) were inoculated (s.c.) with 5×10^6 A549 cancer cells in PBS on the flanking site. The animals were divided into four treatment groups when the average tumor size reached 150 mm^3: group 1 (PBS daily i.p. dosing), group 2 (20 mg/kg paclitaxel once per 4 days i.p. dosing), group 3 (2 mg/kg IMS2155 daily i.p. dosing) and group 4 (20 mg/kg paclitaxel once per 4 days i.p. dosing and 2 mg/kg IMS2155 daily i.p. dosing). The tumor size and body weight was measured twice per week. Tumor volume was calculated using the formula TV=length×width×width/2.
It is noteworthy that IMS2155 worked almost as well as Taxol at the MTD dose (20 mg/kg for this strain of mice).

PC3 prostate cells = experiment: PC3 medium-staged prostate xenograft model, combination therapy; assay type: in vivo, mice; conditions: Example 1 P.O. daily, doxorubicin or paclitaxel i.p.; tumors around 100 mm^3 at start; FIG. 3 and 4
Experimental: The anti-tumor activity of compounds of the invention in combination with at least one additional chemotherapeutic agent was also tested in a nude mice xenograft model.
(§1) A. Female athymic nude (nu/nu) mice were inoculated with PC3 prostate cells. When tumor volumes reached around 100 mm^3, the animals were divided into four groups with average size of tumors similar among the four groups. The first group was dosed with vehicle (as control), the second group with the compound of Example 1 (P.O. daily), the third with doxorubicin (i.p.) and the fourth with the combination (i.p. Dox/p.o. compound of Example 1).
as §1, with “B.” for “A.”, “paclitaxel (taxol)” for “doxorubicin”, “(ip. taxol/p.o.” for “(i.p. Dox/p.o.”

SMILES | EC50 [1] | also measured
CCCCn1c(C)c(C=O)c(/C=C/c2ccc3cc(N(C)C)ccc3[n+]2C)c1C.CS(=O)(=O)[O-] [Example 56] | < 1000 nM | Result: Tumor reduction (H460 NSCL cells; NSCL, H460 xenograft, I.p.): Tumor reduction (41%); H460 tumor size as compared to control (H460 NSCL cells; dosed i.p. daily (6 times/week), p<0.05, FIG. 2): significant reduction; toxicity (H460 NSCL cells; nude mice, H460 xenograft, i.p. daily (6 times/week)): no apparent toxicity
CN(C)c1ccc2c(ccc(/C=C/c3cccc(Oc4ccccc4)c3)[n+]2C)c1 [Example 34] | 1000 nM | –
CN(C)c1ccc2c(ccc(/C=C/c3ccc(C#Cc4ccccc4)s3)[n+]2C)c1 [Example 50] | < 1000 nM | –
CN(C)c1ccc2c(ccc(/C=C/c3ccc(OCc4ccsc4C#N)cc3)[n+]2C)c1 [Example 43] | < 1000 nM | –
CN(C)c1ccc2c(ccc(/C=C/c3cn(S(=O)(=O)c4ccccc4)c4ccccc34)[n+]2C)c1 [Example 41] | 1000 nM | –
CN(C)c1ccc2c(ccc(/C=C/c3coc4ccccc4c3=O)[n+]2C)c1 [Example 40] | 1000 nM | –
COCCn1c(C)c(C=O)c(/C=C/c2ccc3cc(N(C)C)ccc3[n+]2C)c1C [Example 25] | < 1000 nM | –
CN(C)c1ccc2c(ccc(/C=C/c3ccc4oc(C(=O)c5ccc(Cl)cc5)cc4c3)[n+]2C)c1 [Example 42] | 1000 nM | –
CCOC(=O)c1c(/C=C/c2ccc3cc(N(C)C)ccc3[n+]2C)c(C)n(C2CC2)c1C [Example 53] | < 1000 nM | –
CN(C)c1ccc2c(ccc(/C=C/c3ccc(-c4ccccc4)s3)[n+]2C)c1 [Example 32] | 1000 nM | –
CC[n+]1c(C=Cc2ccc(N(C)C)cc2)ccc2ccccc21 [quinaldine red] | – | transformed cell growth (transformed cell growth): inhibitor of transformed cell growth
Cc1cc(/C=C/c2ccc3cc(N4CCCCC4)ccc3[n+]2C)c(C)n1-c1ccccc1 [Example 29] | 1000 nM | –
O=CC[C@@H](O)[C@H](O)[C@H](O)CO [Example 2DG, 2-deoxyglucose, reference compound] | – | A549 tumor growth (A549 cancer cells [2]): no response
CCCCOc1ccc(/C=C/c2ccc3cc(N(C)C)ccc3[n+]2C)cc1.O=S(=O)([O-])C(F)(F)F [Example 36] | < 1000 nM | LLC tumor growth (Lewis lung cancer cells [3]): significantly suppressed tumor growth; A549 tumor growth (A549 cancer cells [2]): significantly inhibited tumor growth; LLC tumor growth as compared with 2DG alone or control (Lewis lung cancer cells [4]): significantly inhibited tumor growth
Cc1c(/C=C/c2ccc3cc(N(C)C)ccc3[n+]2C)cnn1-c1ccccc1 [Example 48] | > 1000 nM | –
Cc1cc(C=Cc2ccc3cc(OC(N)=O)ccc3[n+]2C)c(O)c2ncccc12 [NSC 86372, 6-(aminocarbonyloxy)-2-(2-(8-hydroxy-5-methylquinolin-7-yl)vinyl)-1-methylquinolinium] | – | protein synthesis [5]: inhibited protein synthesis
CN(C)c1ccc2c(ccc(/C=C/c3ccc(-c4nn(C)cc4C(F)(F)F)s3)[n+]2C)c1 [Example 38] | 1000 nM | –
Cc1c(C=O)c(/C=C/c2ccc3cc(N(C)C)ccc3[n+]2C)c(C)n1-c1ccccc1 [Example 28] | < 1000 nM | –
Cc1cc(/C=C/c2ccc3cc(N4CCC(C)CC4)ccc3[n+]2C)c(C)n1-c1ccccc1 [Example 30] | 1000 nM | –

SMILES | EC50 [1] | also measured
CN(C)c1ccc2c(ccc(/C=C/c3ccc(OCc4ccccc4)cc3)[n+]2C)c1 [Example 46] | < 1000 nM | –
CCCCn1c(C)c(C=O)c(/C=C/c2ccc3cc(Cl)ccc3[n+]2C)c1C [Example 58] | < 1000 nM | –
CN(C)c1ccc2c(ccc(/C=C/c3ccc(OC(F)(F)F)cc3)[n+]2C)c1 [Example 44] | 1000 nM | –
CC(=O)O[C@H]1C(=O)[C@@]2(C)[C@H]([C@H](OC(=O)c3ccccc3)[C@]3(O)C[C@H](OC(=O)[C@H](O)[C@@H](NC(=O)c4ccccc4)c4ccccc4)C(C)=C1C3(C)C)[C@]1(OC(C)=O)CO[C@@H]1C[C@@H]2O [Taxol, paclitaxel, reference compound] | – | A549 tumor size (A549 cancer cells [6]): significant reduction in tumor size; growth of PC3 medium-staged xenograft tumors (PC3 prostate cells): reduced tumor size significantly
COc1cc(/C=C/c2ccc3cc(N(C)C)ccc3[n+]2C)ccc1OCc1ccccc1 [Example 45] | < 1000 nM | –
CCCCn1c(C)c(C=O)c(/C=C/c2ccc3cc(N4CCOCC4)ccc3[n+]2C)c1C [Example 27] | > 1000 nM | –
Cc1cc(/C=C/c2ccc3cc(N(C)C)ccc3[n+]2C)oc1C [Example 33] | 1000 nM | –
CCOC(=O)c1c(/C=C/c2ccc3cc(N(C)C)ccc3[n+]2C)c(C)n(Cc2cccs2)c1C [Example 55] | < 1000 nM | –
Cc1cc(/C=C/c2ccc3cc(N4CCOCC4)ccc3[n+]2C)c(C)n1-c1ccccc1 [Example 26] | 1000 nM | –
CN(C)c1ccc2c(ccc(/C=C/c3ccc(-c4cc(C(F)(F)F)nn4C)s3)[n+]2C)c1 [Example 37] | 1000 nM | –
CN(C)c1ccc2c(ccc(/C=C/c3sccc3Oc3ccccc3)[n+]2C)c1 [Example 49] | < 1000 nM | –
CCOC(=O)c1c(/C=C/c2ccc3cc(N(C)C)ccc3[n+]2C)c(C)n(-c2ccccc2)c1C [Example 54] | < 1000 nM | –
CCCCc1nc(/C=C/c2ccc3cc(N(C)C)ccc3[n+]2C)c(Cl)[nH]1 [Example 39] | > 1000 nM | –
CN(C)c1ccc2c(ccc(/C=C/c3cc(C(=O)c4ccc(F)cc4)cn3C)[n+]2C)c1.O=S(=O)([O-])C(F)(F)F [Example 52] | > 1000 nM | reduction of viable cell growth ([1]; at the concentration stated in Table 3): inactive
CCn1c2ccccc2c2cc(/C=C/c3ccc4cc(N(C)C)ccc4[n+]3C)ccc21 [Example 51] | < 1000 nM | –
CN(C)c1ccc2c(ccc(/C=C/c3cccc(-c4cccs4)n3)[n+]2C)c1 [Example 31] | 1000 nM | –
Cc1cc(/C=C/c2ccc3cc(N(C)C)ccc3[n+]2C)cc(C)c1OCc1ccccc1.O=S(=O)([O-])C(F)(F)F [Example 47] | < 1000 nM | LLC tumor growth (Lewis lung cancer cells [3]): significantly suppressed tumor growth; A549 tumor size (A549 cancer cells [6]): significant reduction in tumor size
CN(C)c1ccc2c(ccc(/C=C/c3ccc(Oc4ccccc4)cc3)[n+]2C)c1 [Example 35] | < 1000 nM | –
CCCCn1c(C)c(C=O)c(/C=C/c2ccc3cc(C)ccc3[n+]2C)c1C [Example 57] | < 1000 nM | –
